Results taken from PMC5620277, “The histone methyltransferase EZH2 as a druggable target in SHH medulloblastoma cancer stem cells” (Oncotarget, 2017).

Key:
[1] = tested on: DAOY cells; assay: Western Blot of H3K27me3 and PCNA in DAOY cells; assay type: cell-based; settings: 5 μM, 48 h
Protocol: (§1) To evaluate cell viability cells were plated at a density of 5×10^3 cells/well in 96-well plates and were incubated with MTS solution (CellTiter 96® AQueous One Solution Promega).
(§2) Western blots were performed according to standard procedures. Briefly, protein lysates were prepared using RIPA buffer with fresh protease inhibitors. Lysates were separated on SDS polyacrylamide gels. Proteins were transferred on nitrocellulose membrane (0.45 micron) (PerkinElmer). Membranes were blocked for 1 h at room temperature in 5% nonfat dry milk and incubated overnight at 4°C with antibodies against EZH2 (4905S Cell signaling), H3K27me3 (07-449 Millipore), PCNA (2586 Cell signaling), ACTIN (I-19 sc-1616; Santa Cruz Biotechnology), GAPDH (ab9484, Abcam), cleaved CSP-3 (D-175 9661S; Cell Signaling) and H3 (ab1971, Abcam). HRP-conjugated secondary antibodies (Santa Cruz Biotechnology) were used in combination with enhanced chemiluminescence (ECL Amersham).

[2] = tested on: mMB-SLCs; assay: Self-renewal, clonogenic assay, mMB-SLCs; assay type: cell-based, mouse; settings: 5 μM
Protocol: (§3) For self-renewal assessment, clonogenic assay was performed as previously described. Briefly: oncospheres were disaggregated with non-enzymatic cell dissociation buffer (Sigma) and cells were plated at clonal density (1-2 cells/mm^2) into 96-well plates and cultured for an appropriate number of days (7-15) until oncospheres were countable.

[3] = tested on: DAOY-SLCs; assay: Western Blot of H3K27me3 and PCNA in DAOY-SLCs; assay type: cell-based; settings: 5 μM, 48 h
Protocol: as §1, §2

[4] = PAMPA-BBB (porcine brain lipid extract artificial membrane); assay type: in vitro ADME; settings: for Papp at 24 h: Pe in cm/s, pH 7.4, 24 h, room temperature, triplicate, read-out: Log Pe (converted)
Protocol: Donor solution (500 μM or 250 μM) was prepared by diluting 10 or 5 mM DMSO compound stock solution using phosphate buffer (pH 7.4, 0.01 M). Filter membrane was coated with 5 μl of BBB-specific lipid solution prepared dissolving 16 mg of PBL (Avanti Lipids Polar, 141101P) in 600 μl of n-dodecane. Donor solution (150 μl) was added to each well of the filter plate. To each well of the acceptor plate 300 μl of solution (5% DMSO in phosphate buffer) were added. Each compound was tested in triplicate. The sandwich was incubated for 24 h at room temperature under gentle shaking. After the incubation time, the sandwich plates were separated and 250 μl of the acceptor plate were transferred to a UV quartz microtiter plate and measured by UV spectroscopy, using a Multiskan GO microplate spectrophotometer (Thermo Scientific) at 250−500 nm at step of 5 nm. Reference solutions (250 μl) were prepared diluting the sample stock solutions to the same concentration as that with no membrane barrier. The BBB permeability value Log Pe is determined applying the equation:
log Pe= log{C⋅(−ln(1−[drug]acceptor/[drug]equilibrium))},
where C=(VD⋅VA/(VD+VA)area⋅time)
In this equation, VA is the volume of the acceptor compartment (0.3 cm^3), VD is the donor volume (0.15 cm^3), area is the accessible filter area (0.24 cm^2), and time is the incubation time in seconds.

[5] = tested on: hMB-SLCs; assay: Self-renewal, clonogenic assay, hMB-SLCs; assay type: cell-based, human; settings: 5 μM
Protocol: as §3

[6] = tested on: DAOY-SLCs; assay: Cell viability, MTS assay, DAOY-SLCs; assay type: cell-based; settings: 5 μM, after 72 h
Protocol: as §1

[7] = tested on: hMB-SLCs; assay: Western Blot of H3K27me3, PCNA, cleaved caspase 3 in hMB-SLCs; assay type: cell-based, human; settings: 5 μM, 48 h
Protocol: as §1, §2

[8] = tested on: mMB-SLCs; assay: Western Blot of H3K27me3, PCNA, cleaved caspase 3 in mMB-SLCs; assay type: cell-based, mouse; settings: mMB-SLCs, 5 μM, 48 h
Protocol: Afterwards, we tested the ability of MC3629 (at 0.5, 5, and 25 μM) to inhibit the EZH2 enzymatic activity on a cell-based assay in vitro. The lower significant MC3629 dosage to decrease the H3K27me3 level in MB-SLCs was 5 μM (Figure 2C).
as §1, §2

Compound	H3K27me3 and PCNA levels [1]	self-renewal [2]	H3K27me3 and PCNA levels [3]	Papp at 24 h [4] [nm/s]	Δ Log Pe ([4]; respect to propranolol)	self-renewal [5]	cell viability [6]	H3K27me3 and PCNA protein levels [7]	H3K27me3 and PCNA protein levels [8]
CC[C@H](C)n1cc(C)c2c(C(=O)NCc3c(C)cc(C)[nH]c3=O)cc(-c3ccc(N4CCNCC4)nc3)cc21 [GSK2816126, reference compound]	impaired only by MC3629	significantly reduced	down modulated	38.9	−0.20	significantly reduced	significantly impair	significantly impaired	significantly impaired
CC(C)NCC(O)COc1cccc2ccccc12 (stereo not shown) [propranolol]				61.7					
